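48-hour exposure; five concentrations; linearly interpolated endpoints. TGI: total growth inhibition.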
Assays:
Assay in all cases: NCI-60 cell line screen, 48 h
A498 renal = tested on: A498 renal
A549 NSCLC = tested on: A549 NSCLC
ACHN renal = tested on: ACHN renal
BT-549 breast = tested on: BT-549 breast
CAKI-1 renal = tested on: CAKI-1 renal
HL-60(TB) leukemia = tested on: HL-60(TB) leukemia
HOP-62 NSCLC = tested on: HOP-62 NSCLC
HS 578T breast = tested on: HS 578T breast
K-562 leukemia = tested on: K-562 leukemia
NCI/ADR-RES ovarian = tested on: NCI/ADR-RES ovarian
OVCAR-3 ovarian = tested on: OVCAR-3 ovarian
OVCAR-4 ovarian = tested on: OVCAR-4 ovarian
OVCAR-8 ovarian = tested on: OVCAR-8 ovarian
RPMI-8226 leukemia = tested on: RPMI-8226 leukemia
RXF 393 renal = tested on: RXF 393 renal
SK-MEL-28 melanoma = tested on: SK-MEL-28 melanoma
SK-OV-3 ovarian = tested on: SK-OV-3 ovarian
SNB-78 CNS = tested on: SNB-78 CNS
TK-10 renal = tested on: TK-10 renal
U251 CNS = tested on: U251 CNS

Structure (SMILES)	TGI (A498 renal) [µM]	TGI (A549 NSCLC) [µM]	TGI (ACHN renal) [µM]	TGI (BT-549 breast) [µM]	TGI (CAKI-1 renal) [µM]	TGI (HL-60(TB) leukemia) [µM]	TGI (HOP-62 NSCLC) [µM]	TGI (HS 578T breast) [µM]	TGI (K-562 leukemia) [µM]	TGI (NCI/ADR-RES ovarian) [µM]	TGI (OVCAR-3 ovarian) [µM]	TGI (OVCAR-4 ovarian) [µM]	TGI (OVCAR-8 ovarian) [µM]	TGI (RPMI-8226 leukemia) [µM]	TGI (RXF 393 renal) [µM]	TGI (SK-MEL-28 melanoma) [µM]	TGI (SK-OV-3 ovarian) [µM]	TGI (SNB-78 CNS) [µM]	TGI (TK-10 renal) [µM]	TGI (U251 CNS) [µM]
Nc1ccc(Sc2c3ccccc3nc3ccccc23)cc1	> 100	> 100	28.3	27.4	39	10.7	56.9	> 68.4	22.6	36	29.2	29.4	28.6	17.4	40.4	24.8	59.8	53.3	34.2	28
COC(=O)C1C=CCON2CCc3c(n(S(=O)(=O)c4ccccc4)c4ccccc34)C12 (centres undefined)	> 100	> 100	> 100		98.7	> 67.2	> 55.5		> 60.9		> 100	> 31.6	> 100	> 36	> 100	> 100	> 85.7	> 100	> 100	> 42.1
O=c1cc(-c2ccccc2)[nH]c2cc(Cl)ccc12	> 100	> 100	31		11.4	0.612	13.3		21.2			> 100	33.1	10.5	1.08	> 100	3.95	> 100	> 100	3.91
O=C1C=CC2(C=C1)C[C@H](NC(=O)OCc1ccccc1)C(=O)O2	> 100	> 78.5	29.5	32.7	34.8	7.58	> 69.2	> 100	> 32.5		30.4	39.6	31.4	17.2	24.9	27	> 92.3	67.2	32.4	37.1
O=c1c2c(c1=O)-c1ccccc1CN2	> 100	> 100	> 100		> 100	> 100	> 100		> 100		> 100	> 100	> 100	> 100	> 100	> 100	> 100	> 100	> 100	> 100

Source: PubChem BioAssay (NCI)
